Measurements published in patent publication US4176009A, “Method of measuring collagenase activity” (Ajinomoto Co., Inc., priority 1976, dated 1979).
Non-standard residues stand in square brackets, D forms with d. Residues, ends and D or L forms follow the SMILES beside them. *: point of attachment. Dnp = O=[N+]([O-])c1ccc(*)c([N+](=O)[O-])c1

Columns and labels:
[1] = system: purified collagenase; assay: Time course of hydrolysis of substrate solutions by purified collagenase (Example 12); assay type: biochemical, tadpole; settings: for 00365 (absorbance of the organic layer at 365 nm): pH 7.5
Description: (§1) Purified collagenase used in Examples was prepared from cultured media of tadpole skin explants as described in Biochem. Biophs. Acta, 263 564(1972), and non-specific peptidases were prepared by subjecting 5 ml of fresh adult human serum to chromatography on a calibrated Sephadex G-200 superfine gel column equilibrated with 0.05 M Tris-HCl buffer, pH 7.5, containing 0.15 M NaCl and 5 mM CaCl2, and gathering the effluent fractions corresponding to molecular weights of 100,000-180,000.
DNP-Pro-Gln-Gly-Ile-Ala-Gly-Gln-D-Arg-OH.CH3 COOH.H2 O (4.96 mg) was neutralized with 0.1N sodium hydroxide, and dissolved in 0.05M tris-HCl buffer, pH 7.5, containing 0.15 M NaCl and 5 m MCaCl2 to make 10 ml of the substrate solution (a) having a concentration of 5×10^-4 M. The substrate solution (b) was also prepared similarly by using DNP-Gln-Gly-Ile-Ala-Gly-Gln-D-Arg-OH.CH3 COOH.H2 O (4.48 mg).
(§2) 0.9 ml Each of the substrate solutions was diluted with 0.88 ml of 0.05M tris-HCl buffer, pH 7.5, containing 0.15 M NaCl, and 5 m MCaCl2. The resulting solution was mixed with 0.02 ml of purified collagenase, and incubated. 0.2 ml Aliquots of the reaction mixture were taken out at 0, 10, 20, 40, 60 and 120 minutes, and mixed with 0.5 ml of 1M hydrochloric acid for stopping the enzyme reaction.
(§3) The DNP-peptide fragments released were extracted by vigorous shaking with 1 ml of ethyl acetate-n-butanol (1:0.15, V/V) followed by centrifugation at 3,000-5,000 rpm and room temperature for 10 minutes to separate two layers completely. The degree of hydrolysis was determined by measuring the absorbance of the organic layer at 365 nm.

[2] = system: non-specific peptidases; assay: Rate of hydrolysis of DNP-peptide derivatives by non-specific peptidases (Example 15); assay type: biochemical, human; settings: 5×10^-4 M peptide, 37° C., pH 7.5; average of three experiments; extraction with ethyl acetate (* compounds: ethyl acetate-n-butanol 1:0.15)
Description: as §1
(§4) Various DNP-peptide derivatives were dissolved in 0.05 M Tris-HCl buffer, pH 7.5, containing 0.15 M NaCl, 5 mM CaCl2 and 0.02% bovine serum albumin to make a concentration of 5×10^-4 M. 0.1 ml Each of the peptide derivative solutions was mixed with an equal volume of purified collagenase (6.2 U/ml) or non-specific peptidases and incubated for various periods at 37° C. After stopping the enzyme reaction by adding 0.5 ml of 1 M HCl, the DNP-peptide fragments released were extracted by vigorous shaking with 1 ml of ethylacetate or ethyl acetate-n-butanol (1:0.15, V/V), and worked up as in Example 12.

[3] = system: collagenase in synovial fluids; assay: Hydrolysis of substrate solutions by synovial fluids from patients; collagenase activity (Example 14); assay type: biochemical, human; settings: for OD365/0.1 ml ohr: 0 hr; for OD365/0.1 ml 2hr: 2 hr at 37° C.; for OD365/0.1 ml increment: 2 hr minus 0 hr
Description: as §3
0.2 ml Each of the substrate (solutions(a) and (b) prepared in Example 12 was mixed with 0.1 ml of synovial fluids from patients with osteoarthritis and rheumatoid arthritis, and incubated for 2 hours at 37° C. After stopping the enzyme reaction by adding 0.5 ml of 1 M hydrochloric acid, the DNP-peptide fragments released were extracted by vigorous shaking with 2 ml of ethyl acetate-n-butanol (1:0.15, V/V), and worked up as in Example 12 to obtain the collagenase activities.

[4] = system: non-specific peptidases; assay: Time course of hydrolysis of substrate solution(a) by non-specific peptidase (Example 13); assay type: biochemical, human
Description: as §1, §2, §3
1 ml of the substrate solution(a) prepared in Example 12 was mixed with 1.0 ml of non-specific peptidase, and the resulting solution was worked up as in Example 12.

[5] = system: purified collagenase; assay: Rate of hydrolysis of DNP-peptide derivatives by purified collagenase (Example 15); assay type: biochemical, tadpole; settings: 5×10^-4 M peptide, purified collagenase 6.2 U/ml, 37° C., pH 7.5; average of three experiments; extraction with ethyl acetate (* compounds: ethyl acetate-n-butanol 1:0.15)
Description: as §1, §4

[6] = synovial fluid of case five, RA
[7] = synovial fluid of case four, OA
[8] = synovial fluid of case three, RA

## CC[C@H](C)[C@H](NC(=O)CNC(=O)[C@H](CCC(N)=O)NC(=O)[C@@H]1CCCN1c1ccc([N+](=O)[O-])cc1[N+](=O)[O-])C(=O)N[C@@H](C)C(=O)NCC(=O)N[C@@H](CCC(N)=O)C(=O)N[C@H](CCCNC(=N)N)C(=O)O [Example 1, DNP-Pro-Gln-Gly-Ile-Ala-Gly-Gln-D-Arg-OH] (Dnp-PQGIAGQ[dR]-OH)
[1]; incubation time 0 min
  00365 (absorbance of the organic layer at 365 nm): 0.033
[1]; incubation time 10 min
  increment of 00365: 0.018
  00365 (absorbance of the organic layer at 365 nm): 0.051
[1]; incubation time 20 min
  increment of 00365: 0.018
  00365 (absorbance of the organic layer at 365 nm): 0.071
[1]; incubation time 40 min
  increment of 00365: 0.079
  00365 (absorbance of the organic layer at 365 nm): 0.112
[1]; incubation time 60 min
  increment of 00365: 0.107
  00365 (absorbance of the organic layer at 365 nm): 0.140
[1]; incubation time 120 min
  increment of 00365: 0.184
  00365 (absorbance of the organic layer at 365 nm): 0.217
[2]
  Rate of hydrolysis by non-specific peptidases: 0 OD365/hr
[3]; [6]
  OD365/0.1 ml ohr: 0.045 OD365/0.1 ml
  OD365/0.1 ml 2hr: 0.591 OD365/0.1 ml
  OD365/0.1 ml increment: 0.546 OD365/0.1 ml
[3]; [7]
  OD365/0.1 ml ohr: 0.042 OD365/0.1 ml
  OD365/0.1 ml 2hr: 0.045 OD365/0.1 ml
  OD365/0.1 ml increment: 0.003 OD365/0.1 ml
[3]; synovial fluid of case one, RA
  OD365/0.1 ml ohr: 0.041 OD365/0.1 ml
  OD365/0.1 ml 2hr: 0.058 OD365/0.1 ml
  OD365/0.1 ml increment: 0.017 OD365/0.1 ml
[3]; synovial fluid of case six, OA
  OD365/0.1 ml ohr: 0.045 OD365/0.1 ml
  OD365/0.1 ml 2hr: 0.041 OD365/0.1 ml
  OD365/0.1 ml increment: 0 OD365/0.1 ml
[3]; [8]
  OD365/0.1 ml ohr: 0.049 OD365/0.1 ml
  OD365/0.1 ml 2hr: 0.695 OD365/0.1 ml
  OD365/0.1 ml increment: 0.646 OD365/0.1 ml
[3]; synovial fluid of case two, OA
  OD365/0.1 ml ohr: 0.045 OD365/0.1 ml
  OD365/0.1 ml 2hr: 0.043 OD365/0.1 ml
[4]; incubation time 0 min
  00365 (absorbance of the organic layer at 365 nm): 0.053
[4]; incubation time 10 min
  00365 (absorbance of the organic layer at 365 nm): 0.054
  increment of 00365: 0.001
[4]; incubation time 20 min
  00365 (absorbance of the organic layer at 365 nm): 0.056
  increment of 00365: 0.002
[4]; incubation time 40 min
  00365 (absorbance of the organic layer at 365 nm): 0.058
  increment of 00365: 0.004
[4]; incubation time 60 min
  00365 (absorbance of the organic layer at 365 nm): 0.060
  increment of 00365: 0.007
[4]; incubation time 120 min
  00365 (absorbance of the organic layer at 365 nm): 0.063
  increment of 00365: 0.010
[5]
  Rate of hydrolysis by Collagenase: 0.093 OD365/hr

## CC(C)C[C@H](NC(=O)CNC(=O)[C@H](CCC(N)=O)NC(=O)[C@@H]1CCCN1c1ccc([N+](=O)[O-])cc1[N+](=O)[O-])C(=O)N[C@@H](C)C(=O)NCC(=O)N[C@@H](CCC(N)=O)C(=O)N[C@H](CCCNC(=N)N)C(=O)O [Example 4, DNP-Pro-Gln-Gly-Leu-Ala-Gly-Gln-D-Arg-OH] (Dnp-PQGLAGQ[dR]-OH)
[2]
  Rate of hydrolysis by non-specific peptidases: 0.031 OD365/hr
[5]
  Rate of hydrolysis by Collagenase: 0.243 OD365/hr

## CC[C@H](C)[C@H](NC(=O)CNC(=O)[C@H](C)NC(=O)[C@@H]1CCCN1c1ccc([N+](=O)[O-])cc1[N+](=O)[O-])C(=O)N[C@@H](C)C(=O)NCC(=O)N[C@@H](CCC(N)=O)C(=O)N[C@H](CCCNC(=N)N)C(=O)O [Example 5, DNP-Pro-Ala-Gly-Ile-Ala-Gly-Gln-D-Arg-OH] (Dnp-PAGIAGQ[dR]-OH)
[2]
  Rate of hydrolysis by non-specific peptidases: 0.010 OD365/hr
[5]
  Rate of hydrolysis by Collagenase: 0.070 OD365/hr

## CC(C)C[C@H](NC(=O)CNC(=O)[C@H](C)NC(=O)[C@@H]1CCCN1c1ccc([N+](=O)[O-])cc1[N+](=O)[O-])C(=O)N[C@@H](C)C(=O)NCC(=O)N[C@@H](CCC(N)=O)C(=O)N[C@H](CCCNC(=N)N)C(=O)O [Example 6, DNP-Pro-Ala-Gly-Leu-Ala-Gly-Gln-D-Arg-OH] (Dnp-PAGLAGQ[dR]-OH)
[2]
  Rate of hydrolysis by non-specific peptidases: 0.051 OD365/hr
[5]
  Rate of hydrolysis by Collagenase: 0.120 OD365/hr
